Results published in patent US20020010210A1, “PHARMACEUTICAL PREPARATION AND METHOD FOR TREATING CANCER” (priority 1997, published 2002).
Counter-ions that a name gives are not always drawn. Numbered stars: 1 amine (or outer) side, 2 acyl side, 3 side chain; on linkers, the order of the positions; unused ones are H or OH. Bridge positions count the residues as written; N and C are the ends. Square brackets hold non-standard residues; d marks the D form. Peptide text beside a SMILES is read from it. I, II: the chains in the order shown. Actinocin(9to1) = Cc1c2oc3c(C)ccc(C(=O)[*:1])c3nc-2c(C(=O)[*:2])c(N)c1=O; NMeV = CN[C@H](C(=O)O)C(C)C; Sar = CNCC(=O)O

How the values were obtained:
[1] = tested on: spontaneous breast cancer rat cells (SST-2); experiment: Lung metastasis of SST-2 in SHR rats, ascorbic acid derivative combined with known anticancer agent (Example 4); format: in vivo
Protocol: 1×100,000 spontaneous breast cancer rat cells (SST-2) were subcutaneously implanted into the back of a rat (SHR rat) (5 rats per group) suffering from spontaneous hypertension. After 35 days, the rats were sacrificed, and the number of colonies formed were measured to examine the degree of metastasis of SST-2 to the lung.
The ascorbic acid derivatives used were L-ascorbic acid-2-phosphate-6-palmitate, L-ascorbic acid-6-benzoate (reference compound) and magnesium L-ascorbic acid-2-phosphate.
Each of the groups treated with an ascorbic acid derivative was subjected to a test of administering the ascorbic acid derivative alone and to a test of administering the ascorbic acid derivative in combination with a known anticancer agent as shown in Table 4. Furthermore, tests of administering the anticancer agents alone were conducted. Over the period of from 7 days prior to implantation to 34 days after the implantation, the ascorbic acid derivative was injected through a vein in the tail region at a dose of 1 mg/1 day/rat. Each of the known anticancer agents was perorally administered in a minimum dose by reference to the concentration for a single use case described in the publication, Tyakuhin Yoran (Medical Product Handbook), 4th Edition, pp. 1474-1509, Yakugyo Jiho-Sha (1989), and the number of colonies formed after metastasis was compared.

[2] = tested on: spontaneous breast cancer rat cells (SST-2); experiment: as above; format: in vivo; remark: listed apart in the source
[3] = ascorbic acid derivative 1 mg/1 day/rat tail vein, day -7 to day 34, known anticancer agent perorally in minimum dose, colonies after 35 days

| Structure (SMILES) | Cancer metastasis inhibitory effect of combination with L-Ascorbic Acid-2-Phosphate-6-Palmitate versus each agent alone [1, 3] | Cancer metastasis inhibitory effect of combination with L-Ascorbic Acid-2-Phosphate-6-Benzoate versus each agent alone [2, 3] | Cancer metastasis inhibitory effect of combination with L-Ascorbic Acid-6-Palmitate versus each agent alone [2, 3] | Cancer metastasis inhibitory effect of combination with L-Ascorbic Acid-2-Phosphate-6-Palmitate versus each agent alone ([1]; rat, in vivo) | Cancer metastasis inhibitory effect of combination with L-Ascorbic Acid-2-Phosphate-6-Benzoate versus each agent alone ([2]; rat, in vivo) | Cancer metastasis inhibitory effect of combination with L-Ascorbic Acid-6-Palmitate versus each agent alone ([2]; rat, in vivo) |
| --- | --- | --- | --- | --- | --- | --- |
| N=c1ccn2c(n1)O[C@H]1[C@H](O)[C@@H](CO)O[C@H]12 [ANCITABINE hydrochloride] | + | + | − |  |  |  |
| COC(COC(N)=O)C1=C(N2CC2)C(=O)C(C)=C(N2CC2)C1=O (stereo not drawn) [CARBOCON] | + | + | − |  |  |  |
| C[C@]12CC[C@@H]3c4ccc(OC(=O)N(CCCl)CCCl)cc4CC[C@H]3[C@@H]1CC[C@@H]2OP(=O)(O)O [Estracyt (R)] | + | + | − |  |  |  |
| CC/C(=C(/CC)c1ccc(OP(=O)(O)O)cc1)c1ccc(OP(=O)(O)O)cc1 [HONPAN] | + | + | − |  |  |  |
| O[C@@H]([C@H](O)[C@H](O)CBr)[C@H](O)CBr [MITOPURNITOL] | + | + | − |  |  |  |
| CS(=O)(=O)OCCCNCCCOS(C)(=O)=O.Cc1ccc(S(=O)(=O)O)cc1 [Protecton (R)] | + | + | − |  |  |  |
| S=P(N1CC1)(N1CC1)N1CC1 [TIOTEBA] | + | + | − |  |  |  |
| CC(=O)O[C@@H]1C(=O)O[C@H]2[C@@H]1OC(=O)[C@@H]2OC(C)=O [aceglatone] | + | + | − |  |  |  |
| CC[C@@]1(O)C[C@H](O[C@H]2C[C@H](N(C)C)[C@H](O[C@H]3C[C@H](O)[C@H](O[C@H]4CCC(=O)[C@H](C)O4)[C@H](C)O3)[C@H](C)O2)c2c(cc3c(c2O)C(=O)c2c(O)cccc2C3=O)[C@H]1C(=O)OC [aclarubicin hydrochloride] |  |  |  | + | + | − |
| Cc1c2oc3c(C)ccc(C(=O)N[C@@H]4C(=O)N[C@H](C(C)C)C(=O)N5CCC[C@H]5C(=O)N(C)CC(=O)N(C)[C@@H](C(C)C)C(=O)O[C@@H]4C)c3nc-2c(C(=O)N[C@@H]2C(=O)N[C@H](C(C)C)C(=O)N3CCC[C@H]3C(=O)N(C)CC(=O)N(C)[C@@H](C(C)C)C(=O)O[C@@H]2C)c(N)c1=O [actinomycin (D)] (I: T[dV]P[Sar][NMeV] / II: T[dV]P[Sar][NMeV]; ester I:1-I:C, II:1-II:C; linker I:N-II:N via Actinocin(9to1)) |  |  |  | + | + | − |
| CS(=O)(=O)OCCCCOS(C)(=O)=O [bulsfan] |  |  |  | + | ± | − |
| CCCCCCNC(=O)n1cc(F)c(=O)[nH]c1=O [carmofur] | + | + | − |  |  |  |
| CO[C@@H]1[C@H](O)C[C@@H](O[C@@H]2C[C@H](Oc3cc4cc5c(c(O)c4c(O)c3C)C(=O)[C@@H](O[C@H]3C[C@@H](O[C@H]4C[C@@H](O[C@H]6C[C@](C)(O)[C@@H](OC(C)=O)[C@H](C)O6)[C@H](O)[C@@H](C)O4)[C@H](O)[C@@H](C)O3)[C@H]([C@H](OC)C(=O)[C@@H](O)[C@@H](C)O)C5)O[C@H](C)[C@@H]2OC(C)=O)O[C@@H]1C [chromomycin A3] | + | + | − |  |  |  |
| N.N.[Cl][Pt][Cl] [cisplatin] | + | + | − |  |  |  |
| O=P1(N(CCCl)CCCl)NCCCO1 (stereo not drawn) [cyclophosphamido] | + | + | − |  |  |  |
| Nc1ccn([C@@H]2O[C@H](CO)[C@@H](O)[C@@H]2O)c(=O)n1 [cytarabine] | + | + | − |  |  |  |
| COc1cccc2c1C(=O)c1c(O)c3c(c(O)c1C2=O)C[C@@](O)(C(C)=O)C[C@@H]3O[C@H]1C[C@H](N)[C@H](O)[C@H](C)O1 [daunorubicin hydrochloride] |  |  |  | + | + | − |
| CN(C)/N=N/c1[nH]cnc1C(N)=O [decarbazine] | + | + | − |  |  |  |
| COc1cccc2c1C(=O)c1c(O)c3c(c(O)c1C2=O)C[C@@](O)(C(=O)CO)C[C@@H]3O[C@H]1C[C@H](N)[C@H](O)[C@H](C)O1 [doxorubicin hydrochloride] | + | + | − |  |  |  |
| CCCCCCCCCCCCCCCCCCCCCC(=O)Nc1ccn([C@@H]2O[C@H](CO)[C@@H](O)[C@@H]2O)c(=O)n1 [enocitabine] | + | ± | − |  |  |  |
| C[C@]12C[C@H]3S[C@H]3C[C@@H]1CC[C@@H]1[C@@H]2CC[C@]2(C)[C@@H](O)CC[C@@H]12 [epitiostanol] |  |  |  | + | + | − |
| O=c1[nH]c(=O)n([C@H]2C[C@H](O)[C@@H](CO)O2)cc1F [floxuridine] | + | + | − |  |  |  |
| O=c1[nH]cc(F)c(=O)[nH]1 [fluorouracil] | + | + | − |  |  |  |
| O=P1(NCCCl)OCCCN1CCCl (stereo not drawn) [ifosfamide] |  |  |  | + | + | − |
| COC1(O[C@H]2CC[C@H]3[C@@H]4CC[C@H]5C[C@@H]6S[C@@H]6C[C@]5(C)[C@H]4CC[C@]23C)CCCC1 [mebitiostan] | + | + | − |  |  |  |
| S=c1nc[nH]c2nc[nH]c12 [meercaptopurine] |  |  |  | + | + | − |
| NC(Cc1ccc(N(CCCl)CCCl)cc1)C(=O)O (stereo not drawn) [merphalan] | + | + | − |  |  |  |
